Measured values as given in patent US12551581B2, “Combination cancer immunotherapy with pentaaza macrocyclic ring complex” (Galera Labs, LLC, priority 2017, dated 2026).
Where two headings read alike, the source gives them in different places.

Tests used:
[1] = rats, experimental colitis; Cuzzocrea et al. 2001; cited from earlier work
[2] = hamster oral mucositis; Murphy et al. 2008; cited from earlier work
[3] = rat model; Salvemini et al. 1999; cited from earlier work
[4] = lethal total body irradiation, adult mice; Thompson et al. 2010; cited from earlier work
[5] = rat collagen-induced arthritis; Salvemini et al. 2001; cited from earlier work
[6] = test system: 4T1 tumors; assay: 4T1 tumor volume with GC4419 and/or radiation in immunodeficient mice; type: in vivo; details: nu/nu mice
Experimental: (§1) In separate studies, either syngeneic Balb/c mice or immunodeficient nu/nu mice were subcutaneously implanted with 4T1 cells to form a xenograft. On day 11 after transplant, animals were treated with GC4419 (24 mg/kg) and/or 15 Gy of 250 kVp X-rays, as described in Table 5 below.
(§2) Tumor volume was tracked as a function of time, and Day 17 (the last common day of measurement between the two studies given the rapid growth of tumors in the nu/nu mice) mean tumor volumes are described in Table 6 below.

[7] = test system: 4T1 mouse breast cancer tumors; assay: 4T1 syngeneic model, GC4419 with anti-CTLA-4, delayed/skip dosing (Example 6); type: in vivo, Balb/C mice
Experimental: GC4419 was administered in combination with the T-cell checkpoint inhibitor anti-CTLA-4 (9D9) to female Balb/C mice implanted subcutaneously with the mouse breast cancer cell line, 4T1. Tumors were allowed to grow for up to 35 days or until they exceeded 3000 mm^3 (or Group mean of 2000 mm^3).
Treatments with the antibody and GC4419 are described in Table 8.
Tumor volumes were assessed and mean values are shown in FIGS. 5C and 5D (Mean Tumor Volumes in 4T1 Model).

[8] = test system: LLC tumors; assay: LLC abscopal study, GC4419 with radiation and anti-CTLA4, primary and secondary tumors; type: in vivo, C57Bl/6 mice
Experimental: Syngeneic animals (C57Bl/6 mice) were subcutaneously implanted with LLC cells in the right flank to form a xenograft (primary tumor). On day 2, the same animals were subcutaneously implanted with LLC cells in the left flank for form another xenograft (secondary tumor). On day 8, some animals began treatment with anti CTLA-4 antibodies (200 μg) as indicated below. On day 11, when both primary and secondary tumors were palpable, all animals were treated with GC4419 (24 mg/kg), 15 Gy of 250 kVp X-rays, and/or anti CTLA-4 antibodies (10 mg/kg), as described in Table 10 below. Tumor growth was tracked as a function of time for both primary and secondary tumors.

[9] = rat model; Tuder et al. 2003; cited from earlier work
[10] = test system: 4T1 tumors; assay: 4T1 tumor volume with GC4419 and/or radiation in immunocompetent mice; type: in vivo, Balb/c mice
Experimental: as §1, §2

[11] = head-and-neck cancer patients undergoing chemoradiation therapy; Anderson 2015; cited from earlier work
[12] = test system: Lewis lung carcinoma (LLC) tumors; assay: Lewis lung carcinoma tumors, GC4419 plus ionizing radiation; type: in vivo, C57.CL/6 mice
Experimental: The effects of GC4419 plus IR on intratumoral levels of key immune cell populations were tested in Lewis lung carcinoma (LLC) tumors. In the study, 4 week old C57.CL/6 mice were injected with LLC cells to form tumors. At 13 days post-injection, animals were treated with GC4419 at doses of 3, 10 and 24 mg/kg and 15 Gy of 250 kVp X-rays. Tumor growth was tracked until tumor size exceeded 2 cm in any one direction. In addition, tumor infiltrating lymphocyte populations were assessed in separate animals via flow cytometry at various time points post IR (15 Gy) in combination with 10 mg/kg GC4419 treatment. Intratumoral populations of neutrophils, macrophages and activated cytotoxic T-cells were altered due to the presence of GC4419 either with or without ionizing radiation, as shown in FIG. 6B. However, it is unclear from this study alone whether these transient alterations in the immune cell populations caused by GC4419 contribute to improved results for the combination of GC4419 with checkpoint inhibitor therapy combined or in the absence of radiation therapy.

[13] = test system: Colon 26 mouse colon cancer cell line tumors; assay: Colon 26 syngeneic tumor model, GC4419 with anti-PD1; type: in vivo, Balb/C mice; details: 1 and 3 mg/kg bid ip GC4419 added to anti-PD1 5 mg/kg; versus anti-PD1 alone
Experimental: GC4419 was administered in combination with the T-cell checkpoint inhibitor anti-PD-1 (RMP1-14) to female Balb/C mice implanted with the mouse colon cancer cell line, Colon 26 beginning on day 3 post-implantation. Tumors were allowed to grow for up to 52 days or until they exceeded 1000 mm3.
Treatments with the antibody and GC4419 are described in Table 1.
Tumor volumes were assessed and median and mean values are shown in FIG. 1 (Median Tumor Volumes in Colon 26 Model) and 2 (Mean Tumor Volumes in Colon 26 Model).

[14] = test system: 4T1 mouse breast cancer tumors; assay: 4T1 syngeneic tumor model, GC4419 with anti-CTLA-4, start day varied (Example 5); type: in vivo, Balb/C mice
Experimental: GC4419 was administered in combination with the T-cell checkpoint inhibitor anti-CTLA-4 (9D9) to female Balb/C mice implanted subcutaneously with the mouse breast cancer cell line, 4T1. Tumors were allowed to grow for up to 45 days or until they exceeded 3000 mm^3 (or Group mean of 2000 mm^3).
Treatments with the antibody and GC4419 are described in Table 7.
Tumor volumes were assessed and mean values are shown in FIG. 5A (Mean Tumor Volumes in 4T1 Model).
FIG. 5B depicts such an improvement occurring for dosing of GC4419 that is delayed until day 13 after a start of anti-CTLA4 administration (i.e., after the 5th dose of anti-CTLA4). In comparison of arms treated with (a) combination of GC4419 with anti-CTLA4 treatment and (b) anti-CTLA4 treatment alone, no difference should be apparent between the two arms before addition of GC4419 treatment. As a result tumor control was assessed by normalizing the tumor growth curves of each arm with respect to the day on which treatment with GC4419 was started in the combination arm (i.e., day 13 in FIG. 5B).

[15] = test system: 4T1 tumors and lung metastases; assay: 4T1 metastatic breast cancer model, GC4419 with radiation and anti-CTLA4; type: in vivo, mice (syngeneic)
Experimental: Specifically, as shown in FIGS. 4A-4C, GC4419 decreases metastasis and enhances the efficacy of the combination of radiation and T-cell checkpoint inhibitor anti-CTLA4 (9D9) in the 4T1 metastatic breast cancer model. Syngeneic animals were subcutaneously implanted with 4T1 cells to form a xenograft. On day 12, when no lung metastasis is present, animals were treated with GC4419 (24 mg/kg), 15 Gy of 250 kVp X-rays, and/or anti CTLA-4 antibodies (10 mg/kg) or IgG control antibodies, as described in Table 3 below. Tumor growth was tracked as a function of time and at day 35 post implantation ([…]), animals were euthanized and lungs collected to count metastases.

[Cl-].[Cl-].[Mn+2].c1cc2nc(c1)CN[C@@H]1CCCC[C@H]1NCCN[C@@H]1CCCC[C@H]1NC2 [GC4403]
injury to the colon [1]: very significantly reduce the injury to the colon
radiation damage [2]: attenuate the radiation damage
inflammation [3]: inhibit inflammation
radiation damage [4]: attenuate the radiation damage
joint disease [5]: prevent joint disease

[Cl][Mn][Cl].c1cc2nc(c1)CN[C@H]1CCCC[C@@H]1NCCN[C@H]1CCCC[C@@H]1NC2 [GC4419]
Day 17 Tumor Volume, V ([6]; mean, GC4419 24 mg/kg D11-15, RT 15 Gy D11): All sac'd at Day 13
tumor growth ([6]; radiation plus GC4419 versus radiation alone): further tumor growth reduction
tumor volumes ([7]; 3 mg/kg or 10 mg/kg GC4419 added to anti-CTLA4, started at least 3 days after antibody): significant further decrease in tumor volumes
tumor volume (FIG. 5D) ([7]; GC4419 10 mg/kg versus 3 mg/kg, with anti-CTLA4): improved results over a dose of 3 mg/kg
tumor volume (FIG. 5C) ([7]; skipping GC4419 on days when anti-CTLA4 was administered): further improved the results, albeit slightly
sensitization of primary and secondary tumors to radiation (growth delay) ([8]; GC4419 D11-15 with 15 Gy RT D11 to primary tumor): sensitized primary and secondary tumors to radiation
growth of secondary tumors (FIG. 8E) ([8]; GC4419 added to anti CTLA-4 therapy and radiation therapy): slowed the growth of secondary tumors
sensitization of primary tumors to combination of anti CTLA-4 therapy and radiation therapy ([8]; GC4419 added to anti-CTLA4 200 μg + 15 Gy RT): sensitized
VEGFr inhibitor-induced pulmonary disease [9]: attenuate VEGFr inhibitor-induced pulmonary disease
V(x) / V(Group 3) ([10]; Balb/c mice, Day 17 volume relative to RT alone group): 1.25
Day 17 Tumor Volume, V ([10]; Balb/c mice, mean, GC4419 24 mg/kg D11-15, RT 15 Gy D11): 1923 mm^3
tumor growth ([10]; Balb/c mice, radiation plus GC4419 versus radiation alone): further tumor growth reduction
increase in response to combined radiation and GC4419 treatment ([10]; Balb/c versus nu/nu mice): greater in immunocompetent mice than in immunodeficient mice
oral mucositis [11]: reduce oral mucositis
intratumoral populations of neutrophils, macrophages and activated cytotoxic T-cells ([12]; 10 mg/kg GC4419 with or without IR 15 Gy, flow cytometry, various time points): altered
sensitization of tumors to ionizing radiation (FIG. 6A) ([12]; GC4419 3, 10 and 24 mg/kg with 15 Gy): sensitized tumors to ionizing radiation regardless of dose
tumor growth [13]: further decrease
tumor growth ([14]; 3 mg/kg GC4419 QD x 21 added, started at least 3 days after antibody treatment): further decrease
normalized tumor growth (FIG. 5B) ([14]; GC4419 start delayed until day 13 after start of anti-CTLA4, versus anti-CTLA4 alone): reduced tumor growth
sensitization of tumors to radiation (tumor volume, FIG. 4A) ([15]; GC4419 24 mg/kg D12-16 with 15 Gy RT D12): sensitized 4T1 tumors to radiation regardless of GC4419 dose
efficacy of combination anti CTLA-4 therapy and radiation therapy (tumor volume, FIG. 4B) ([15]; GC4419 24 mg/kg added to anti-CTLA4 10 mg/kg + 15 Gy RT): enhanced the efficacy of combination anti CTLA-4 therapy and radiation therapy
number of surface lung metastases (FIG. 4C) ([15]; day 35 post implantation): significantly decreased the number of metastases
% Mice without Lung Metastases ([15]; day 35 post implantation, GC4419 24 mg/kg, RT 15 Gy, anti-CTLA4 10 mg/kg): 0%
